The text below walks through data of US8409570B2, “Method of inducing apoptosis using anti-DR5 antibodies” (Genentech, Inc., priority 2005, dated 2013).

One experiment deals with Colo 205 xenograft. Briefly: Colo 205 xenograft model, Apomabs 23.3, 25.3 and 7.3 (Example 7). Particulars: single 3 or 10 mg/kg i.v. dose; 25-day data; FIG. 33. In kind it is in vivo, mouse. The protocol:
All mice were ear tagged for identification. […] Group 4 was administered a single 3 mg/kg/mouse i.v. dose of Apomab 23.3. Group 5 was administered a single […] i.v. dose of Apomab 23.3. […] 24 hours post treatment all mice were weighed. Tumors were measured 2×/week for the first 2 weeks and then weekly for the next 4 weeks. After 6 weeks or when the tumors reached a size of >1000 mm^3, the mice were sacrificed.

The subject of experiment [1] is Colo205 human colon carcinoma cell line. Description: Bioassay: tumor cell growth inhibition/killing (AlamarBlue). The experiment is classed as cell-based. Particulars: Apomab framework variants; last column of Table 12. The protocol:
Bioassay: tumor cell growth inhibition/killing. The apparent potency of each antibody variant was determined in an in vitro tumor cell-killing assay. Colo205 human colon carcinoma cell line was cultured in RPMI medium containing 10% fetal bovine serum. […] Cells (20,000/well) were then added to the plates. The plates were incubated at 37° C. for a total of 48 h. AlamarBlue was added to the wells for the last 3 h of incubation. Fluorescence was read using a fluorometer with excitation at 530 nm and emission of 590 nm. The data were analyzed using a four parameter curve-fitting program.

The test system of experiment [2] is Colo 205 human colon carcinoma xenografts. Description: Colo 205 human colon carcinoma xenografts in nude mice, tumor growth delay (Example 8). The experiment is classed as in vivo, mouse. The conditions noted are these: endpoint tumor volume 1000 mm^3; for tumor growth delay (TGD): Apo2L.0 60 mg/kg i.p. 5/2/5, Apomab 7.3 3 mg/kg i.v. Days 1, 8, B20-4.1 10 mg/kg i.p. Days 1 and 8; for tumor growth delay (TGD), percentage of control median TTE: same regimens. The protocol:
Xenografts were initiated from cultured Colo 205 human colon carcinoma cells. […] On the day of tumor cell implant, Colo 205 cells were harvested and resuspended in 50% Matrigel matrix (BD Biosciences) in PBS at a concentration of 5×10^6 cells/mL.
The test materials were kept on ice during dosing, and dosing solutions were subsequently stored at 4° C.
Tumors were measured twice weekly using calipers. […] The time to endpoint (TTE) for each mouse was calculated from the following equation: […]
Where b is the intercept and m is the slope of the line obtained by linear regression of a log-transformed tumor growth data set. The data set was comprised of the first observation that exceeded the study endpoint volume and the three consecutive observations that immediately preceded the attainment of the endpoint volume. […] Animals suffering treatment-related death or non-treatment related death due to metastasis were assigned a TTE value equal to the day of death. Animals suffering non-treatment related death or death of unknown causes were excluded from the TTE calculations.
Treatment outcome was evaluated by tumor growth delay (TGD), which is defined as the increase in the median time to endpoint (TTE) in the treatment group compared to the control group: TGD=T−C,
Treatment may cause partial regression (PR) or complete regression (CR) of tumor in an animal In a PR response, the tumor volume is 50% or less of its Day 1 volume for three consecutive measurements during the course of the study, and equal to or greater than 13.5 mm^3 for one or more of these three measurements. In a CR response, the tumor volume is less than 13 5 mm^3 for one or more of these three measurements during the course of the study. An animal with a CR response at the termination of the study is additionally classified as a tumor-free survivor (TFS). Regression responses were monitored and recorded.
The Logrank test was use to analyze the significance of the differences between the TTE values of treated and control groups. Two-tailed statistical analyses were conducted at significance level P=0.05, with results deemed significant at 0.01 P 0.05, and highly significant at P<0.01.
Median tumor growth curves show group median tumor volumes as a function of time.

For experiment [3], the system named is SKMES-1 human NSCLC xenograft. Description: SKMES-1 human NSCLC xenograft, tumor growth delay (Example 9). The conditions noted are these: for median TTE: 1500 mm^3 endpoint volume, 45-day study, control median TTE 18.9 days; for TGD, % of control / TGD: versus vehicle control; for TGD, % of control: maximum achievable 138%; for TGD: maximum achievable 26.1 days.
Source text: Xenografts were initiated from SKMES-1 lung tumors maintained by serial transplantation at PRC. Each test mouse received a 1 mm^3 SKMES-1 tumor fragment implanted subcutaneously in the right flank, and tumor growth was monitored. Thirteen days later, designated as Day 1 of the study, individual tumor volumes ranged from 63 to 144 mm^3, and the animals were sorted into four groups each consisting of ten mice and two groups each consisting of nine mice. Mean tumor volumes were 93 to 95 mm^3.
All test materials were provided ready to dose at 0.1 mL per 20 g body weight (5 mL/kg), and were stored at −80° C. upon receipt. The test materials were thawed on the first day of dosing, kept on ice during dosing, then subsequently stored at 4° C. Carboplatin ([…] ® injection, Bristol Myers Squibb) was diluted with 5% dextrose in water (D5W) to yield the desired dose in a volume of 0.2 mL per 10 g body weight (10 mL/kg). Paclitaxel (Natural Pharmaceuticals, Inc.) was diluted with D5W on each day of dosing from a 10× stock solution to yield a vehicle consisting of 5% ethanol and 5% Cremophor EL in 90% D5W (5% EC vehicle), so that the desired dose was delivered in 0.1 mL per 20 g body weight.
Group 1 (vehicle control) mice received vehicle administered intraperitoneally once daily for five days (i.p. qd×5), and served as tumor growth controls. […] Each dose was administered in the volume indicated in the previous section, and was scaled to the body weight of the animal.

Experiment [4] relates to human Colo 205 colon carcinoma xenograft. Description: Human Colo 205 carcinoma xenograft model, tumor growth delay (Example 10). The conditions noted are these: for TGD: maximum possible 193%, all treatments i.p.; for MTV(n), median tumor volume on Day 61: n = mice remaining on Day 61.
Procedure: The animals were fed ad libitum water and NIH 31 Modified and Irradiated Lab Diet® consisting of 18.0% crude protein, 5.0% crude fat, and 5.0% crude fiber. The mice were housed on irradiated ALPHA-Dri® Bed-O'Cobs® Laboratory Animal Bedding in static microisolators on a 12-hour light cycle at 21-22° C. and 40-60% humidity.
Human Colo 205 colon carcinoma cells were cultured in RPMI 1640 medium containing 100 units/mL penicillin G sodium, 100 μg/mL streptomycin sulfate, 0.25 μg/mL amphotericin B, and 25 μg/mL gentamicin. The medium was supplemented with 10% heat-inactivated fetal bovine serum, 2 mM glutamine, and 1 mM sodium bicarbonate. The tumor cells were cultured in tissue culture flasks in a humidified incubator at 37° C., in an atmosphere of 5% CO2 and 95% air.
The human Colo 205 carcinoma cells used for implantation were harvested during log phase growth and resuspended in 50% matrigel at 5×10^6 cells/mL. Each mouse was injected s.c. in the right flank with 1×10^6 cells (0.2 mL cell suspension). Tumors were monitored twice weekly and then daily as their volumes approached 100-300 mm^3 On Day 1 of the study, animals were sorted into treatment groups with tumor sizes of 108.0-220.5 mm^3 and a group mean tumor size of 149.8 mm^3 Tumor weight may be estimated with the assumption that 1 mg is equivalent to 1 mm^3 of tumor volume.
The test materials were provided ready for dosing. The dosing solutions were stored at 4° C.
Mice were sorted into six groups with ten mice per group. All treatments were administered intraperitoneally (i.p.).
Apo2L.0 and its vehicle were each administered once daily on Days 1-5 (qd×5). […] Control Group 1 mice were treated with the vehicle for Apo2L.0. […] In all groups, the dosing volume of 0.2 ml/20 g mouse was scaled to the body weight of each animal.
Experiment [5] has as its system Colo 205 human colon carcinoma xenograft. Briefly: Colo 205 xenograft athymic nude mouse model (Example 2). The experiment is classed as in vivo. How it is done: All mice were ear-tagged for identification. Once the tumor volume was approximately 100-200 mm^3, the Colo 205 tumor-bearing mice were randomly grouped and treatment was administered.
In some instances, 3 or 4 mice were euthanized from the vehicle and 10 mg/kg groups, and serum and tumors were collected at 5 minutes, 24 hours or 48 hours post treatment for serum drug concentration and tumor histology studies. In the remaining mice, tumor measurements were taken twice a week for the first 2 weeks, then once a week for another 4 weeks.

The next experiment concerns BxPC3 xenograft. Description: BxPC3 xenograft model of human pancreatic adenocarcinoma. In kind it is in vivo, mouse. Particulars: Apomab 7.3 10 mg/kg i.v., gemcitabine 160 mg/kg ip; FIG. 29.
Experiment [6] concerns HCT15 xenograft model of colorectal cancer. Description: HCT15 xenograft model. The experiment is classed as in vivo, mouse. Particulars: Apomab 7.3 10 mg/kg, CPT-11 80 mg/kg, alone or combined; FIG. 26.
Another experiment has as its system H2122 xenograft. Description: H2122 xenograft model of human lung cancer. In kind it is in vivo, mouse. The protocol: All mice were ear tagged for identification.
All mice were ear tagged for identification. […] Any mice excluded from the treatment groups were euthanized.
Group A was a vehicle-treated control group (0.5 M arginine succinate, 20 mM Tris, 0.02% Tween 20, pH 7.2). […] 48 hours following the first treatment, three mice from each of Groups B, C and D were euthanized, and their tumors were collected as follows. One tumor was preserved in 10% formalin for histology study. One tumor was frozen in liquid nitrogen for RNA studies. One tumor was frozen in liquid nitrogen for Western blot. Tumor measurements were taken 2×/week for the first 2 weeks then 1×/week for the next 4 weeks.

Turning to “Apomab 25.3: Apomab version with heavy chain framework residues Q LVQ K”, the anticancer activity result in the experiment on Colo 205 xenograft was “significant anticancer activity”.

On to “Apomab 27.3: Apomab version with heavy chain framework residues E VER K”, for which the “Bioassay activity with crosslinking” value in experiment [1] was “none”.

“Apo2L.0: soluble form of Apo-2 ligand (TRAIL), 114-281 extracellular domain sequence”: in [2], the “tumor growth delay (TGD)” value stood at 28.4 days and the “tumor growth delay (TGD), percentage of control median TTE” value amounted to 190%. In [3], the “median TTE” value was determined as 22.9 days; the “TGD, % of control” value stood at 21%; the TGD was found to be 4.0 days. Besides, the “median TTE” value in experiment [4] (1500 mm^3 endpoint volume, 61-day study, control median TTE 20.8 days) was found to be 53.6 days. In experiment [4], the TGD is given as 158% and the “MTV(n), median tumor volume on Day 61” value is reported as 1,210 mm^3. The “LTTFS (long-term tumor-free survivor)” value in [4] (ten mice per group) is “One”. For the same molecule, the T-C in experiment [4] (versus vehicle control) amounted to 32.8 days.

As for “Apomab 18.3: Apomab version with heavy chain framework residues E LVQ K”, in experiment [1], the “Bioassay activity with crosslinking” value is “None”.

Regarding “Apomab 7.3: anti-DR5 IgG: heavy chain TH7 (G33A, N53Q, L102Y) + light chain TL3 (Q24S, K51A, R91A); SEQ ID NOS: 18 and 20”, in experiment [2], the “tumor growth delay (TGD)” value is 53.0 days and the “tumor growth delay (TGD), percentage of control median TTE” value is given as 355%. In addition, the “reversal of efficacy during test period” value in [5] (1 mg/kg and 3 mg/kg doses, 20-day test period, FIG. 23) was “does not show any reversal during the 20-day test period”. In [5] (1 mg/kg and 3 mg/kg doses, FIG. 23), the “reduction of tumor volume” value is “effective in reducing tumor volume”. Besides, the “anticancer activity compared with Apomabs 23.3 and 25.3” value in [5] (FIG. 24) was “far exceeded the activity of Apomabs 23.3 and 25.3”. The “reduction of (mean) tumor volume” value in experiment [5] (single intraperitoneal dose 3 or 10 mg/kg, FIGS. 21 and 22, efficacy essentially the same as 16E2 version 1) is “highly efficient in reducing tumor volume”. Besides, the anticancer activity result in the experiment with BxPC3 xenograft was “far superior to the efficacy of gemcitabine”. Also, the anticancer activity entry in experiment [6] is given as “effective when administered alone”. Moreover, the dose-response efficacy result in the experiment on H2122 xenograft (1, 3 and 10 mg/kg single IV dose, FIG. 32) is “efficacious in all doses tested”. Further, the “mice with complete response (CR)” value in the experiment with H2122 xenograft (6 mice/group, without any reversal during the 70-day treatment period) is given as “All six”. In the experiment with Colo 205 xenograft, the anticancer activity entry is “significant anticancer activity”. Moreover, in [3], the “median TTE” value came to 2.0 days; the “TGD, % of control” value came to 38%; the TGD was 7.1 days. Also, the regression responses entry in experiment [3] (mouse, in vivo) was “No regression responses were documented”. Besides, in experiment [4], the TGD is 193% and the “MTV(n), median tumor volume on Day 61” value was 776 mm^3. For the same molecule, in experiment [4] (ten mice per group), the 61-day survivors result was “six”, the “LTTFS (long-term tumor-free survivor)” value is “One”, the PR responses entry was “three” and the “transient CR response” value was “one”.

For `CCc1c2c(nc3ccc(OC(=O)N4CCC(N5CCCCC5)CC4)cc13)-c1cc3c(c(=O)n1C2)COC(=O)[C@]3(O)CC` [CPT-11, irinotecan, reference compound], in experiment [6], the anticancer activity entry is on record as “effective when administered alone”.
